This is an account of results in the RepoRT retention time repository (doi:10.1016/j.foodchem.2021.129757).

SMILES strings stand for the structures.

The first series can be described thus: RP, Waters ACQUITY UPLC HSS T3, 100 × 2.1 mm, 50 °C; A: water + 0.1% formic acid, pH 3; B: 30% methanol + 70% acetonitrile + 0.1% formic acid, pH 3; gradient (min/%B) 0/5 1/8 2/15 3/40 4/70 4.5/100 5/100 6.4/100 6.6/5 6.8/5 7/5. Conditions: stereoisomer not certain.
For the compound `Cc1ncc(CO)c(C=O)c1O` [Pyridoxal], the LC retention time is 2.61 min.

A short description of another series: RP, Waters ACQUITY UPLC HSS T3, 100 × 2.1 mm, 1.8 µm, 30 °C, 0.4 mL/min, estimated dead time 0.55 min; A: water + 0.1% formic acid, pH 3; B: acetonitrile + 0.1% formic acid, pH 3; gradient (min/%B) 0/0 2/0 15/100 22/100 22.1/0 26/0. As to conditions: stereoisomer not certain.
As to `CC(C)C1NC(=O)C2CCCN2C1=O` (centres undefined) [Cyclo(Pro-Val)], the LC retention time was 8.07 min.
Regarding `O=C(O)C1(O)CC(O)C(O)C(O)C1` (centres undefined) [Quinic acid], the LC retention time is 1.05 min.
For the compound `Cn1c(=O)c2c(ncn2C)n(C)c1=O` [Caffeine], the LC retention time is 8.11 min.
Regarding `Cn1c(=O)[nH]c2ncn(C)c2c1=O` [Paraxanthine], the LC retention time was 7.53 min.
For `Cn1c(=O)c2[nH]c(=O)[nH]c2n(C)c1=O` [1,3-Dimethyluric acid], the LC retention time was 7.03 min.
With `COc1cc(CCC(=O)O)ccc1O` [Hydroferulic acid], the LC retention time is 9.38 min.

A further series in a line: RP, Waters ACQUITY UPLC BEH C18, 100 × 2.1 mm, 1.7 µm, 65 °C, 0.4 mL/min, estimated dead time 0.55 min; A: water + 0.1% formic acid, pH 3; B: 80% acetonitrile + 20% acetone + 0.1% formic acid, pH 3; gradient (min/%B) 0/0 5/100 5.5/0 6/0. Conditions: stereoisomer not certain.
As to `CC(C)C1NC(=O)C2CCCN2C1=O` (centres undefined) [Cyclo(Pro-Val)], the LC retention time is 1.88 min.
On to `O=C(O)CCCCCCCC(=O)O` [Azelaic acid], for which the LC retention time was 2.33 min.
Take `O=C(O)Cc1c[nH]c2ccccc12` [3-Indoleacetic acid]: the LC retention time was 2.35 min.
In the case of `Cn1c(=O)c2c(ncn2C)n(C)c1=O` [Caffeine], the LC retention time is 1.67 min.
Turning to `Cn1c(=O)[nH]c2ncn(C)c2c1=O` [Paraxanthine], the LC retention time was 1.48 min.
With `Cn1c(=O)c2[nH]c(=O)[nH]c2n(C)c1=O` [1,3-Dimethyluric acid], the LC retention time is 1.45 min.
Take `Cc1ncc(CO)c(C=O)c1O` [Pyridoxal]: the LC retention time is 0.821 min.
On to `O=C(O)CCc1ccccc1` [3-phenylpropionic acid], for which the LC retention time was 2.78 min.

The nature of the next series: RP, 150 × 2.1 mm, 2.6 µm, 40 °C, 0.35 mL/min, estimated dead time 0.94 min; A: water + 0.1% formic acid, pH 3; B: acetonitrile + 0.1% formic acid, pH 3; gradient (min/%B) 0/0 1/0 12.5/100 14/100 14.2/0 15/0. As to conditions: stereoisomer not certain.
`NCC(=O)c1ccccc1` [2 aminoacetophenone]: the LC retention time was 6.84 min.
As to `OCCc1c[nH]c2ccccc12` [Tryptophol], the LC retention time was 6.45 min.
As to `O=c1c(OC2OC(CO)C(O)C(O)C2O)c(-c2ccc(O)c(O)c2)oc2cc(O)cc(O)c12` (centres undefined) [Quercetin-3-O-galactoside], the LC retention time is 5.66 min.
Still for that read-out and setting: in the case of `CC(=O)NCCc1c[nH]c2ccc(O)cc12` [N-acetylserotonin] it was 4.69 min; in that of `O=C(O)c1cc2ccccc2[nH]1` [2-Indolecarboxylic acid], 6.06 min; in that of `O=S(=O)(O)c1[nH]c2ccccc2c1CCO` [Tryptophol-2-sulfonate], 4.73 min.
As to `COc1cc(CCC(=O)O)cc(OC)c1OC` [3-(3,4,5-Trimethoxyphenyl)propionic acid], the LC retention time is 6.58 min.
As for `O=c1cc(O)c2ccccc2o1` [4-hydroxycoumarin], the LC retention time is 6.51 min.
The same measure, in the same setting: in the case of `COc1cc2c(CCNC(C)=O)c[nH]c2cc1O` [6-Hydroxymelatonin] it was 5.14 min; in that of `O=C(O)c1cc(=O)c2ccccc2[nH]1` [kynurenic acid], 4.3 min.
For `CC(C=CC1(O)C(C)=CC(=O)CC1(C)C)=CC(=O)O` (centres undefined) [Abscisic acid], the LC retention time is 6.9 min.
Still for that read-out and setting: the figure for `NCCc1c[nH]c2ccc(O)cc12` [Serotonin] is 1.54 min; for `COc1ccc2[nH]cc(CCNC(C)=O)c2c1` [Melatonin] it is 6.29 min.

The nature of another series: RP, 150 × 2.1 mm, 2.6 µm, 40 °C, 0.35 mL/min, estimated dead time 0.94 min; A: water + 0.1% formic acid, pH 3; B: acetonitrile + 0.1% formic acid, pH 3; gradient (min/%B) 0/0 1/5 7/45 8.5/80 10.5/80 11/5 12/5. As to conditions: stereoisomer not certain.
Take `NCC(=O)c1ccccc1` [2 aminoacetophenone]: the LC retention time is 6.86 min.
For the compound `OCCc1c[nH]c2ccccc12` [Tryptophol], the LC retention time is 6.48 min.
In the case of `O=c1c(OC2OC(CO)C(O)C(O)C2O)c(-c2ccc(O)c(O)c2)oc2cc(O)cc(O)c12` (centres undefined) [Quercetin-3-O-galactoside], the LC retention time was 5.74 min.
For the compound `CC(=O)NCCc1c[nH]c2ccc(O)cc12` [N-acetylserotonin], the LC retention time is 4.5 min.
Take `O=C(O)c1cc2ccccc2[nH]1` [2-Indolecarboxylic acid]: the LC retention time is 6.07 min.
As for `O=S(=O)(O)c1[nH]c2ccccc2c1CCO` [Tryptophol-2-sulfonate], the LC retention time was 4.57 min.
Regarding `COc1cc(CCC(=O)O)cc(OC)c1OC` [3-(3,4,5-Trimethoxyphenyl)propionic acid], the LC retention time is 6.73 min.
For the compound `O=c1cc(O)c2ccccc2o1` [4-hydroxycoumarin], the LC retention time is 6.59 min.
For `COc1cc2c(CCNC(C)=O)c[nH]c2cc1O` [6-Hydroxymelatonin], the LC retention time is 5.05 min.
As for `O=C(O)c1cc(=O)c2ccccc2[nH]1` [kynurenic acid], the LC retention time is 4.06 min.
Same read-out and setting: the figure for `CC(C=CC1(O)C(C)=CC(=O)CC1(C)C)=CC(=O)O` (centres undefined) [Abscisic acid] is 7.12 min; for `NCCc1c[nH]c2ccc(O)cc12` [Serotonin] it is 1.45 min; for `COc1ccc2[nH]cc(CCNC(C)=O)c2c1` [Melatonin] it is 6.35 min.
On to `O=c1c(O)c(-c2ccc(OC3OC(CO)C(O)C(O)C3O)c(O)c2)oc2cc(O)cc(O)c12` (centres undefined) [Quercetin 4-glucoside], for which the LC retention time was 6.25 min.

The next series is described as follows: RP, Agilent ZORBAX RRHD Eclipse Plus C18, 50 × 2.1 mm, 1.8 µm, 30 °C, 0.4 mL/min, estimated dead time 0.28 min; A: water + 0.1% formic acid, pH 3; B: acetonitrile + 0.1% formic acid, pH 3; gradient (min/%B) 0/1 5/10 8/25 9.1/99 10/99 12/1. Conditions: stereoisomer not certain.
For the compound `O=C(O)C1OC(Oc2ccccc2O)C(O)C(O)C1O` (centres undefined) [Catechol-O-1-glucuronide], the LC retention time was 4.38 min.

A further series in a line: RP, Agilent ZORBAX RRHD Eclipse Plus C18, 50 × 2.1 mm, 1.8 µm, 30 °C, 0.4 mL/min, estimated dead time 0.28 min; A: water + 0.1% formic acid, pH 3; B: acetonitrile + 0.1% formic acid, pH 3; gradient (min/%B) 0/1 5/10 8/25 9.1/99 10/99 12/99. As to conditions: stereoisomer not certain.
`O=C(O)C1OC(Oc2ccccc2O)C(O)C(O)C1O` (centres undefined) [Catechol-O-1-glucuronide]: the LC retention time is 3.09 min.
